# Where two headings read alike, the source gives them in different places. Numbered stars: 1 amine (or outer) side, 2 acyl side, 3 side chain; on linkers, the order of the positions; unused ones are H or OH. Square brackets hold non-standard residues; d marks the D form. Ends that are not written are not given here. Peptide text beside a SMILES is read from it. Ala(indol-4-yl) = N[C@@H](Cc1cccc2[nH]ccc12)C(=O)O; X1 = O=C([C@@H](Cc1cccc2[nH]ccc12)N[*:1])[*:2]; NMeR = CN[C@@H](CCCNC(=N)N)C(=O)O; Tle = CC(C)(C)[C@H](N)C(=O)O; dOrn = NCCC[C@@H](N)C(=O)O; Dab = NCC[C@H](N)C(=O)O
# Experiments:
# [1] = molecular target: T1, human NTR1 (Homo sapiens, UniProt P30989); assay: Competition binding with [3H]NT, membranes of CHO-K1 cells transfected with human NTR1
# T1 construct: expressed in transfected cells; host or cells: CHO-K1
# Protocol: (§1) CHO-K1 cells were stably transfected with nucleic acid encoding either the human NTR1 or the rat NTR1, and cultured in 150 mm petri plates with 35 mL of Dulbecco-modified Eagle's medium containing 100 μM minimal essential medium nonessential amino acids (GIBCO) supplemented with 5% (v/v) FetalClone II bovine serum product (Hyclone Labs, Logan, Utah). CHO cells (subculture 9–19) were harvested at confluency. Briefly, the medium from each plate was removed by aspiration, and the cells washed with 6 mL of 50 mM Tris-HCl (pH 7.4) and resuspended in 5–10 mL of Tris-HCl by scraping the cells with a rubber spatula. The resuspended cells were placed into a centrifuge tube and collected by centrifugation at 300× g for five minutes at 4° C. in a GPR centrifuge (Beckman Instruments, Fullerton, Calif.). The cellular pellet (in 50 mM Tris-HCl, 1 mM EDTA, pH 7.4) was stored at […] until radioligand binding was performed.
# (§2) The supernatant was decanted and discarded, and the cellular pellet was resuspended in 2 mL of Tris-HCl, 1 mM EDTA (pH 7.4) followed by homogenization with a Brinkmann Polytron at setting 6 for ten seconds. Centrifugation was repeated as above and the supernatant was decanted and discarded. The resulting final cellular pellet was resuspended in 50 mM Tris-HCl, lmM EDTA, 0.1% bovine serum albumin, and 0.2 mM bacitracin.
# (§3) Incubation was at 20° C. for 30 minutes. Each reaction was terminated by addition of cold 0.9% NaCl (5×1.5 mL) followed by rapid filtration through a GF/B filter strip that had been pretreated with 0.2% polyethylenimine.
# [2] = Catalepsy bar test in rats; type: in vivo, rat
# Protocol: The following experiments were performed to assess the ability of NT69L to cause and influence catalepsy. Male Sprague-Dawley rats (150–250 g) or CD-1 mice (24–26 g) were housed in a temperature-controlled room in groups of five with free access to food and water. The animals were kept on a 12 hour light/dark cycle, and all tests were performed during the light cycle. […] Thirty minutes after injection, the animals were tested for catalepsy. For rats, the test involved simply placing the animal's fore paws on a suspended metal bar 10 mm in diameter, 11 cm above the counter. The time elapsed until the animal's fore paws touch the counter was recorded. […] The cut-off time was 20 seconds, and each animal was tested three times for each time point.
# [3] = molecular target: 5HT2A receptor (Homo sapiens, UniProt P28223); assay: Competitive binding with [3H]ketanserin, human brain tissue; settings: for competition with labeled ketanserin for binding at the 5HT2A receptor: human brain tissue
# [4] = Degradation in human plasma (HPLC peak area); type: in vitro ADME; settings: for half-life at 0.5 mg/mL: human
# From the text: (§4) For the degradation studies, data were plotted in linear form as a semi-log plot with SigmaPlot for Windows Version 4.00. Linear regression on these plots provided the parameters used to calculate the half-time (t1/2) for degradation of each polypeptide. The correlation coefficient (R) for the linear regression was taken as a measure of the goodness-of-fit.
# [5] = Body temperature (hypothermia) in rats; settings: for peak body temperature reduction: 18 nmol injected into the PAG, at 30 minutes; for induction of hypothermia: intraperitoneal administration (NT64L 1 mg/kg); for Peak BT change / time of Peak BT change: rats
# [6] = Hot plate test (antinociception, % MPE) in rats; settings: for peak % MPE value: 18 nmol injected into the PAG, at 30 minutes; for induction of antinociception (hot plate): intraperitoneal administration (NT64L 1 mg/kg); for Peak % MPE / time of Peak % MPE: rats
# [7] = molecular target: T2, rat NTR1 (Rattus norvegicus, UniProt P20789); assay: Competition binding with [3H]NT, membranes of CHO-K1 cells transfected with rat NTR1
# T2 construct: expressed in transfected cells; host or cells: CHO-K1
# Protocol: as §1, §2, §3
# [8] = Degradation in rat plasma (HPLC peak area); type: in vitro ADME
# From the text: as §4
# [9] = Degradation in rat intestinal preparation; type: in vitro ADME; settings: pH 7.4, 37° C., read-out: half-time, Rat Intestinal Preparation (converted)
# Protocol: For intestinal preparations, rats were sacrificed by decapitation, and the small intestines removed. The tissue was washed with ice-cold PBS (10 mM, pH 7.4). About […] of intestinal tissue was added to about 10 mL of PBS and homogenized using a Brinkman polytron homogenizer (setting 6). After homogenization, 10 mL of PBS was added to 10 mL of the intestinal homogenate. […] The supernatant was removed and stored at −20° C. until testing. Immediately before incubation with the polypeptide, the intestinal preparation was filtered through a 0.2 μm filter. Testing procedures were similar to those for the plasma tests.
# as §4
# [10] = CHO cells, read-out: Kd hNTR (Table VII)
# [11] = 25% plasma, 37° C., 0.5 mg/mL polypeptide, read-out: half-time, Plasma Human (converted)
# [12] = 0.5 mg/kg intraperitoneal (footnote)
compound,measurement,setting,value
"CN1CCN(C2=Nc3cc(Cl)ccc3Nc3ccccc32)CC1 [Clozapine, reference compound]",Kd,[1]; [10],> 100000 nM
same,catalepsy,[2]; 20 mg/kg ip,did not cause catalepsy
"O=C(CCCN1CCC(O)(c2ccc(Cl)cc2)CC1)c1ccc(F)cc1 [Haloperidol, reference compound]",catalepsy,[2]; 1 mg/kg ip,profound catalepsy
same,ED50 at 30 min,"[2]; male, Sprague-Dawley, rat, in vivo, ip, at 30 minutes, read-out: ED50 haloperidol-induced catalepsy",0.13 mg/kg
same,ED50 at 60 min,"[2]; male, Sprague-Dawley, rat, in vivo, ip, at 60 minutes, read-out: ED50 haloperidol-induced catalepsy",0.26 mg/kg
same,ED50 at 180 min,"[2]; male, Sprague-Dawley, rat, in vivo, ip, at 180 minutes, read-out: ED50 haloperidol-induced catalepsy",0.31 mg/kg
"N[C@@H](Cc1cccc2[nH]ccc12)C(=O)O [L-neo-Trp, (2S)-2-amino-3-(1H-4-indolyl)propanoic acid]",binding to human NT receptors from CHO cells,[1],does not bind
same,Kd,[1]; [10],> 100000 nM
same,Kd,[3],> 100000 nM
same,competition with labeled ketanserin for binding at the 5HT2A receptor,[3],did not compete
"CC[C@H](C)[C@H](NC(=O)[C@H](Cc1ccc(O)cc1)NC(=O)[C@@H]1CCCN1C(=O)[C@H](CCCNC(=N)N)NC(=O)[C@H](N)CCCCN)C(=O)N[C@@H](CC(C)C)C(=O)O [NT2, reference compound] (H-[dK]RPYIL-OH; N-terminus and C-terminus assumed)","half-time, Plasma Human",[4],about 0.85 hours
same,half-life at 0.5 mg/mL,[4]; plasma,0.85 h
same,competition with labeled ketanserin for binding at the 5HT2A receptor,[3],found to compete
CC[C@H](C)[C@H](NC(=O)[C@H](Cc1cccc2[nH]ccc12)NC(=O)[C@@H]1CCCN1C(=O)[C@H](CCCNC(=N)N)NC(=O)[C@@H](N)CCCNC(=N)N)C(=O)N[C@@H](CC(C)C)C(=O)O [NT64L],half-life at 0.5 mg/mL,[4]; [11],1.4 h
same,peak body temperature reduction,[5],2.1 °C
same,induction of hypothermia,[5],did not induce
same,peak % MPE value,[6],76%
same,induction of antinociception (hot plate),[6],did not induce
same,Kd,[3],6600 nM
same,competition with labeled ketanserin for binding at the 5HT2A receptor,[3],found to compete
CC(C)C[C@H](NC(=O)[C@@H](NC(=O)[C@H](Cc1cccc2[nH]ccc12)NC(=O)[C@@H]1CCCN1C(=O)[C@H](CCCNC(=N)N)NC(=O)[C@@H](N)CCCNC(=N)N)C(C)(C)C)C(=O)O [NT65L] (H-RRP[Ala(indol-4-yl)][Tle]L-OH; N-terminus and C-terminus assumed),reduction in binding affinity compared to NT64L,[1]; NT receptor binding,3 fold
same,half-life at 0.5 mg/mL,[4]; plasma,1.1 h
CC(C)C[C@H](NC(=O)[C@@H](NC(=O)[C@@H](Cc1cccc2[nH]ccc12)NC(=O)[C@@H]1CCCN1C(=O)[C@H](CCCNC(=N)N)NC(=O)[C@H](N)CCCCN)C(C)(C)C)C(=O)O [NT66D] (H-[dK]RP[X1][Tle]L-OH; N-terminus and C-terminus assumed),Kd,[1],210 ± 20 nM
same,Kd,[7],77 ± 9 nM
same,Peak BT change,[5]; [12],−1.0 @ ° C.
same,time of Peak BT change,[5]; [12],30 min
same,induction of hypothermia,[5],did induce
same,Peak % MPE,[6]; [12],58% @
same,time of Peak % MPE,[6]; [12],30 min
same,induction of antinociception (hot plate),[6],did induce
CN[C@@H](CCCNC(=N)N)C(=O)N[C@@H](CCN)C(=O)N1CCC[C@H]1C(=O)N[C@@H](Cc1cccc2[nH]ccc12)C(=O)N[C@H](C(=O)N[C@@H](CC(C)C)C(=O)O)C(C)(C)C [NT71] (H-[NMeR][Dab]P[Ala(indol-4-yl)][Tle]L-OH; N-terminus and C-terminus assumed),half-life at 0.5 mg/mL,"[8]; 25% plasma, 37° C., 0.5 mg/mL polypeptide, read-out: half-time, Plasma Rat (converted)",260 h
same,half-life,[9],5.1 h
same,Peak BT change,[5]; 1 mg/kg intraperitoneal,−2.0 @ ° C.
same,time of Peak BT change,[5]; 1 mg/kg intraperitoneal,40 min
same,Peak BT change,[5]; 5 mg/kg intraperitoneal,−2.4 @ ° C.
same,time of Peak BT change,[5]; 5 mg/kg intraperitoneal,90 min
same,induction of hypothermia,[5],did induce
same,Peak % MPE,[6]; 1 mg/kg intraperitoneal,70% @
same,time of Peak % MPE,[6]; 1 mg/kg intraperitoneal,60 min
same,Peak % MPE,[6]; 5 mg/kg intraperitoneal,79% @
same,time of Peak % MPE,[6]; 5 mg/kg intraperitoneal,180 min
same,induction of antinociception (hot plate),[6],did induce
CC(C)C[C@H](NC(=O)[C@@H](NC(=O)[C@H](Cc1cccc2[nH]ccc12)NC(=O)[C@@H]1CCCN1C(=O)[C@H](N)CCCCN)C(C)(C)C)C(=O)O [NT72] (H-[dK]P[Ala(indol-4-yl)][Tle]L-OH; N-terminus and C-terminus assumed),Kd,[1],640 nM
same,Kd,[7],270 ± 30 nM
same,half-life at 0.5 mg/mL,[4]; [11],3000 h
same,half-life,[9],54 h
same,Peak BT change,[5]; 5 mg/kg intraperitoneal,−2.8 @ ° C.
same,time of Peak BT change,[5]; 5 mg/kg intraperitoneal,180 min
same,induction of hypothermia,[5],did induce
same,Peak % MPE,[6]; 5 mg/kg intraperitoneal,100% @
same,time of Peak % MPE,[6]; 5 mg/kg intraperitoneal,120 min
same,induction of antinociception (hot plate),[6],did induce
CC[C@H](C)[C@H](NC(=O)[C@H](Cc1cccc2[nH]ccc12)NC(=O)[C@@H]1CCCN1C(=O)[C@H](N)CCCCN)C(=O)N[C@@H](CC(C)C)C(=O)O [NT73] (H-[dK]P[Ala(indol-4-yl)]IL-OH; N-terminus and C-terminus assumed),Kd,[1],45 ± 3 nM
same,Kd,[7],32 ± 6 nM
same,half-life at 0.5 mg/mL,[4]; [11],300 h
same,half-life,[9],0.83 h
same,Peak BT change,[5]; 5 mg/kg intraperitoneal,−0.9 @ ° C.
same,time of Peak BT change,[5]; 5 mg/kg intraperitoneal,90 min
same,induction of hypothermia,[5],did induce
same,Peak % MPE,[6]; 5 mg/kg intraperitoneal,40% @
same,time of Peak % MPE,[6]; 5 mg/kg intraperitoneal,120 min
same,induction of antinociception (hot plate),[6],did induce
CC(C)C[C@H](NC(=O)[C@@H](NC(=O)[C@H](Cc1cccc2[nH]ccc12)NC(=O)[C@@H]1CCCN1C(=O)[C@@H](N)CCN)C(C)(C)C)C(=O)O [NT74] (H-[Dab]P[Ala(indol-4-yl)][Tle]L-OH; N-terminus and C-terminus assumed),half-life at 0.5 mg/mL,[8]; plasma,110 h
CC[C@H](C)[C@H](NC(=O)[C@H](Cc1cccc2[nH]ccc12)NC(=O)[C@@H]1CCCN1C(=O)[C@@H](N)CCN)C(=O)N[C@@H](CC(C)C)C(=O)O [NT75] (H-[Dab]P[Ala(indol-4-yl)]IL-OH; N-terminus and C-terminus assumed),half-life at 0.5 mg/mL,[8]; plasma,1.6 h
same,half-life,[9],0.27 h
"NCCc1c[nH]c2ccc(O)cc12 [Serotonin, reference compound]",Kd,[1]; [10],> 100000 nM
same,Kd,"[7]; CHO cells, read-out: Kd rNTR (Table VII)",> 100000 nM
NT24″27″: L-Arg-D-Orn-L-Pro-L-Tyr-L-Ile-L-Leu (R[dOrn]PYIL) [reference compound],peak body temperature reduction,[5],1.1 °C
same,induction of hypothermia,[5],did not induce
same,peak % MPE value,[6],20%
same,induction of antinociception (hot plate),[6],did not induce
